Measured values as given in patent publication US20150025077A1 (COYOTE PHARMACEUTICALS, INC., priority 2012, published 2015).

System: HSP70
Test: HSP70 levels in Neuro 2a cells, ELISA
Assay type: cell-based, mouse
Conditions: 48 hrs compound then 24 hrs GGTI-298
Procedure: Mouse neuroblastoma 2a cells were cultured in DMEM with 10% FBS for 24 hrs. […] After 24 hrs cells were harvested and lysates were prepared and analyzed by ELISA for HSP70. Compound ID numbers in table refer to structures in Table 1 and Table 2.

Compound	HSP70 level, ELISA signal (absence of compounds normalized as 1.00) (100 nM)	HSP70 level, ELISA signal (absence of compounds normalized as 1.00) (10uM)
CC(C)=CCC/C(C)=C/CC/C(C)=C/c1ncc(C)o1 [Compound 15, 5-methyl-2-((1E,5E)-2,6,10-trimethylundeca-1,5,9-trien-1-yl)oxazole]	1.08	
CC(C)=CCC/C(C)=C/CC/C(C)=C/CC/C(C)=C/c1ncc(C)o1 [Compound 16, 5-methyl-2-((1E,5E,9E)-2,6,10,14-tetramethylpentadeca-1,5,9,13-tetraen-1-yl)oxazole]		0.89
CC(C)=CCC/C(C)=C/CC/C(C)=C/CC/C(C)=C/CN(C)C1CCCCC1 [Compound 17a, N-Cyclohexyl N-Methyl-2E,6E,10E-Geranylgeranyl amine]	1.09	1.22
CCCCCN(C)C/C=C(\C)CC/C=C(\C)CC/C=C(\C)CCC=C(C)C [Compound 17b, N-Methyl-N-n-pentyl-2E,6E,10E-Geranylgeranyl amine]		1.08
CCCCCCCN(C)C/C=C(\C)CC/C=C(\C)CC/C=C(\C)CCC=C(C)C [Compound 17c, N-Heptyl-N-Methyl-2E,6E,10E-Geranylgeranyl amine]		1.01
CC(C)=CCC/C(C)=C/CC/C(C)=C/CC/C(C)=C/CNCCCOC(C)C [Compound 17d]	1.01	
CC(C)=CCC/C(C)=C/CC/C(C)=C/CC/C(C)=C/CNC12CC3CC(CC(C3)C1)C2 [Compound 17e, N-Adamantyl-2E,6E,10E-Geranylgeranyl amine]		1.06
CCNC(=O)OC(C)CC/C=C(\C)CC/C=C(\C)CCC=C(C)C (stereo not drawn) [Compound 20a, Ethyl 5E,9E-farnesyl prop-2-yl carbamate]	0.91	
CC(C)=CCC/C(C)=C/CC/C(C)=C/CC/C(C)=C/C1=N[C@@H](CC(C)C)CO1 [Compound 27c, (S)-4-isobutyl-2-((1E,5E,9E)-2,6,10,14-tetramethylpentadeca-1,5,9,13-tetraen-1-yl)-4,5-dihydrooxazole]		0.95
CC(C)=CCC/C(C)=C/CC/C(C)=C/CC/C(C)=C/C1=N[C@H](C)CO1 [Compound 27d, (R)-4-methyl-2-((1E,5E,9E)-2,6,10,14-tetramethylpentadeca-1,5,9,13-tetraen-1-yl)-4,5-dihydrooxazole]	1.04	1.37
CC(C)=CCC/C(C)=C/CC/C(C)=C/CC/C(C)=C/C1=N[C@H](C(C)C)CO1 [Compound 27e, (R)-4-isopropyl-2-((1E,5E,9E)-2,6,10,14-tetramethylpentadeca-1,5,9,13-tetraen-1-yl)-4,5-dihydrooxazole]		1.11
CC(C)=CCC/C(C)=C/CC/C(C)=C/CC/C(C)=C/C1=N[C@H](CC(C)C)CO1 [Compound 27f, (R)-4-isobutyl-2-((1E,5E,9E)-2,6,10,14-tetramethylpentadeca-1,5,9,13-tetraen-1-yl)-4,5-dihydrooxazole]		0.91
CC(C)=CCC/C(C)=C/CC/C(C)=C/CC/C(C)=C/c1nnc(-c2ccccc2)o1 [Compound 29a, 2-phenyl-5-((1E,5E,9E)-2,6,10,14-tetramethylpentadeca-1,5,9,13-tetraen-1-yl)-1,3,4-oxadiazole]		1.22
COc1ccc(-c2nnc(/C=C(\C)CC/C=C(\C)CC/C=C(\C)CCC=C(C)C)o2)cc1 [Compound 29c, 2-(4-methoxyphenyl)-5-((1E,5E,9E)-2,6,10,14-tetramethylpentadeca-1,5,9,13-tetraen-1-yl)-1,3,4-oxadiazole]		1.06
COc1ccc(-c2nnc(/C=C(\C)CC/C=C(\C)CC/C=C(\C)CCC=C(C)C)o2)cc1OC [Compound 29d, 2-(3,4-dimethoxyphenyl)-5-((1E,5E,9E)-2,6,10,14-tetramethylpentadeca-1,5,9,13-tetraen-1-yl)-1,3,4-oxadiazole]		1.12
CC(C)=CCC/C(C)=C/CC/C(C)=C/CC/C(C)=C/c1nnc(-c2cccnc2)o1 [Compound 29e, 2-(pyridin-3-yl)-5-((1E,5E,9E)-2,6,10,14-tetramethylpentadeca-1,5,9,13-tetraen-1-yl)-1,3,4-oxadiazole]		1.10
CC(C)=CCC/C(C)=C/CC/C(C)=C/CC/C(C)=C/c1nnc(-c2ccncc2)o1 [Compound 29f, 2-(pyridin-4-yl)-5-((1E,5E,9E)-2,6,10,14-tetramethylpentadeca-1,5,9,13-tetraen-1-yl)-1,3,4-oxadiazole]		1.01
CC(C)=CCC/C(C)=C/c1nc(-c2ccccc2)co1 [Compound 32, (E)-2-(2,6-dimethylhepta-1,5-dien-1-yl)-4-phenyloxazole]		0.96
CC(C)=CCC/C(C)=C/c1nc(-c2cccnc2)no1 [Compound 35a, (E)-5-(2,6-dimethylhepta-1,5-dien-1-yl)-3-(pyridin-3-yl)-1,2,4-oxadiazole]		1.08
CC(C)=CCC/C(C)=C/c1nc(-c2ccc(F)cc2)no1 [Compound 35b, (E)-5-(2,6-dimethylhepta-1,5-dien-1-yl)-3-(4-fluorophenyl)-1,2,4-oxadiazole]		0.95
CC(C)=CCC/C(C)=C/c1nc(-c2ccccc2)no1 [Compound 35c, (E)-5-(2,6-dimethylhepta-1,5-dien-1-yl)-3-phenyl-1,2,4-oxadiazole]		1.04
CC(C)=CCC/C(C)=C/c1nc(-c2ccncc2)no1 [Compound 35d, (E)-5-(2,6-dimethylhepta-1,5-dien-1-yl)-3-(pyridin-4-yl)-1,2,4-oxadiazole]		1.05

Compound	HSP70 level, ELISA signal (absence of compounds normalized as 1.00) (100 nM)	HSP70 level, ELISA signal (absence of compounds normalized as 1.00) (10uM)
CC(C)=CCC/C(C)=C/CC/C(C)=C/CC/C(C)=C/C1=N[C@@H](C(C)C)C(=O)O1 [Compound 37b, (S)-4-isopropyl-2-((1E,5E,9E)-2,6,10,14-tetramethylpentadeca-1,5,9,13-tetraen-1-yl)oxazol-5(4H)-one]		0.89
CC(C)=CCC/C(C)=C/CC/C(C)=C/CC/C(C)=C/C1=N[C@H](CC(C)C)C(=O)O1 [Compound 37c, (R)-4-isobutyl-2-((1E,5E,9E)-2,6,10,14-tetramethylpentadeca-1,5,9,13-tetraen-1-yl)oxazol-5(4H)-one]	0.99	
CC(C)=CCC/C(C)=C/CC/C(C)=C/CC/C(C)=C/COC(=S)Nc1cccnc1 [Compound 38a, O-((2E,6E,10E)-3,7,11,15-tetramethylhexadeca-2,6,10,14-tetraen-1-yl) pyridin-3-ylcarbamothioate]	0.79	
CC(C)=CCC/C(C)=C/CC/C(C)=C/CC/C(C)=C/COC(=S)NCc1ccco1 [Compound 38b, O-((2E,6E,10E)-3,7,11,15-tetramethylhexadeca-2,6,10,14-tetraen-1-yl) (furan-2-ylmethyl)carbamothioate]	1.04	
CC(C)=CCC/C(C)=C/CC/C(C)=C/CC/C(C)=C/COC(=O)Nc1ccncc1 [Compound 39, (2E,6E,10E)-3,7,11,15-tetramethylhexadeca-2,6,10,14-tetraen-1-yl pyridin-4-ylcarbamate]	1.15	
CC(C)=CCC/C(C)=C/CC/C(C)=C/CC/C(C)=C/COC(=O)N1CCN(C)CC1 [Compound 40a]	0.99	
CC(C)=CCC/C(C)=C/CC/C(C)=C/CC/C(C)=C/COC(=O)Nc1ccccn1 [Compound 40b, (2E,6E,10E)-3,7,11,15-tetramethylhexadeca-2,6,10,14-tetraen-1-yl pyridin-2-ylcarbamate]	0.92	
CNC(=O)OC/C=C(\C)CC/C=C(\C)CCC=C(C)C [Compound 42]		1.25
CC(C)=CCC/C(C)=C/CC/C(C)=C/CC/C(C)=C/CCC(=O)C(C)(C)C [Compound 60]	0.89	
CCC(=O)CC/C=C(\C)CC/C=C(\C)CC/C=C(\C)CCC=C(C)C [Compound 61]	0.98	
CCOC(=O)/C=C/C=C(\C)CC/C=C(\C)CC/C=C(\C)CCC=C(C)C [Compound 65]	0.90	
CCOC(=O)C(C/C=C(\C)CC/C=C(\C)CC/C=C(\C)CCC=C(C)C)C(=O)c1ccoc1 (stereo not drawn) [Compound 68]	1.11	
CC(C)=CCC/C(C)=C/CC/C(C)=C/CC/C(C)=C/CCC(=O)c1ccoc1 [Compound 69]	0.90	
CCCC(=O)C(C/C=C(\C)CC/C=C(\C)CC/C=C(\C)CCC=C(C)C)C(=O)OCC (stereo not drawn) [Compound 70]	1.07	
CCOC(=O)C(C/C=C(\C)CC/C=C(\C)CC/C=C(\C)CCC=C(C)C)C(=O)C12CC3CC(CC(C3)C1)C2 (stereo not drawn) [Compound 71]	1.03	
CCCC(=O)CC/C=C(\C)CC/C=C(\C)CC/C=C(\C)CCC=C(C)C [Compound 73]	0.99	
CC(C)=CCC/C(C)=C/CC/C(C)=C/CC/C(C)=C/CCC(=O)C(C)C [Compound 74]	1.08	
CCOC(=O)C1(C/C=C(\C)CC/C=C(\C)CC/C=C(\C)CCC=C(C)C)CCCCCC1=O (stereo not drawn) [Compound 76]	0.75	
CCOC(=O)C(C/C=C(\C)CC/C=C(\C)CC/C=C(\C)CCC=C(C)C)C(=O)C(C)C (stereo not drawn) [Compound 77]	1.03	
CCOC(=O)C(C)(C/C=C(\C)CC/C=C(\C)CC/C=C(\C)CCC=C(C)C)C(C)=O (stereo not drawn) [Compound 78]	1.00	
CCOC(=O)C1(C/C=C(\C)CC/C=C(\C)CC/C=C(\C)CCC=C(C)C)CCCC1=O (stereo not drawn) [Compound 79]	0.98	
